The record followed here is patent US11053234B2 (GlaxoSmithKline Intellectual Property Development Limited, priority 2016, dated 2021).

This experiment concerns the target T1, haematopoietic prostaglandin D synthase (H-PGDS) (Homo sapiens, UniProt O60760).
T1 construct: Full length human H-PGDS cDNA (Invitrogen Ultimate ORF 10H13026) was amplified by PCR; 6-His (N); TEV protease cleavage site (N); made in house; host or cells: E. coli BL21 (DE3*), vector pET22b+
In words: H-PGDS RapidFire high throughput mass spectrometry assay (conversion of PGH2 to PGD2). It counts as biochemical. The settings on record: 10 nM H-PGDS, PGH2 formed in situ by COX-2 from arachidonic acid; for IC50: read-out: Potency Range (mean pIC50) (converted). In outline:
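PGH2 substrate generated in situ by COX-2 (full-length human, FLAG-tagged, Sf9-expressed) from arachidonic acid at ˜10 μM, then converted by full-length human His-tagged H-PGDS (E. coli-expressed). RapidFire SPE–triple quadrupole MS measured PGD2 against PGF2α as substrate surrogate to give percent conversion.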

T1 sequence (O60760 whole entry): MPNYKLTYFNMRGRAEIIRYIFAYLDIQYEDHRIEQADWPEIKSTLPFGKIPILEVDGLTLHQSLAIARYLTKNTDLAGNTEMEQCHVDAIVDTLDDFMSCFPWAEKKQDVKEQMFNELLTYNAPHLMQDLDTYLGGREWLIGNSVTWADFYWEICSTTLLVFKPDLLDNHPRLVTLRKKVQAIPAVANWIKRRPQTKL

Turning to `CC(=O)c1csc(NC(=O)[C@H]2C[C@H](Oc3cccc4scnc34)C2)n1` [Example 68, (trans)-N-(4-Acetylthiazol-2-yl)-3-(benzo[d]thiazol-4-yloxy)cyclobutanecarboxamide], the IC50 was 10 to 79.4 nM.

For `O=C(NC1CN(c2ccnc(Cl)n2)C1)[C@H]1C[C@H](Oc2cccc3scnc23)C1` [Example 69, (trans)-3-(Benzo[d]thiazol-4-yloxy)-N-(1-(2-chloropyrimidin-4-yl)azetidin-3-yl)cyclobutanecarboxamide], the IC50 is 10 to 79.4 nM. The same measure, in the same setting: with `CC(C)Nc1nccc(N2CC(NC(=O)[C@H]3C[C@H](Oc4cccc5scnc45)C3)C2)n1` [Example 70, (trans)-3-(Benzo[d]thiazol-4-yloxy)-N-(1-(2-(isopropylamino)pyrimidin-4-yl)azetidin-3-yl)cyclobutanecarboxamide] the figure was 100 to 1000 nM. Still for that read-out and setting: with `COCCNc1nccc(N2CC(NC(=O)[C@H]3C[C@H](Oc4cccc5scnc45)C3)C2)n1` [Example 72, (trans)-3-(Benzo[d]thiazol-4-yloxy)-N-(1-(2-((2-methoxyethyl)amino)pyrimidin-4-yl)azetidin-3-yl)cyclobutanecarboxamide] the figure was 100 to 1000 nM; with `O=C(N[C@H]1C[C@H](Nc2ncccn2)C1)[C@H]1C[C@H](Oc2cccc3scnc23)C1` [Example 73, (trans)-3-(Benzo[d]thiazol-4-yloxy)-N-((trans)-3-(pyrimidin-2-ylamino)cyclobutyl)cyclobutanecarboxamide], 100 to 1000 nM; with `O=C(NC1CN(c2nccc(Cl)n2)C1)[C@H]1C[C@H](Oc2cccc3scnc23)C1` [Example 74, (trans)-3-(Benzo[d]thiazol-4-yloxy)-N-(1-(4-chloropyrimidin-2-yl)azetidin-3-yl)cyclobutanecarboxamide], 10 to 79.4 nM. For `CN(C)c1ccnc(N2CC(NC(=O)[C@H]3C[C@H](Oc4cccc5scnc45)C3)C2)n1` [Example 75, (trans)-3-(Benzo[d]thiazol-4-yloxy)-N-(1-(4-(dimethylamino)pyrimidin-2-yl)azetidin-3-yl)cyclobutanecarboxamide], the IC50 is 10 to 79.4 nM. On the same count and under the same terms, then `CN(C)c1nccc(N2CC(NC(=O)[C@H]3C[C@H](Oc4cccc5scnc45)C3)C2)n1` [Example 76, (trans)-3-(Benzo[d]thiazol-4-yloxy)-N-(1-(2-(dimethylamino)pyrimidin-4-yl)azetidin-3-yl)cyclobutanecarboxamide], with 100 to 1000 nM; and `O=C(NC1CN(c2ncc(F)cn2)C1)[C@H]1C[C@H](Oc2cccc3scnc23)C1` [Example 78, (trans)-3-(Benzo[d]thiazol-4-yloxy)-N-(1-(5-fluoropyrimidin-2-yl)azetidin-3-yl)cyclobutanecarboxamide], with 10 to 79.4 nM; and `Cc1nnc(NC(=O)[C@H]2C[C@H](Oc3cccc4scnc34)C2)o1` [Example 79, (trans)-3-(Benzo[d]thiazol-4-yloxy)-N-(5-methyl-1,3,4-oxadiazol-2-yl)cyclobutanecarboxamide], with 100 to 1000 nM. On the same count and under the same terms, with `O=C(NC1CN(c2ncccn2)C1)[C@H]1C[C@H](Oc2cccc3scnc23)C1` [Example 80, (trans)-3-(Benzo[d]thiazol-4-yloxy)-N-(1-(pyrimidin-2-yl)azetidin-3-yl)cyclobutanecarboxamide] the figure was 10 to 79.4 nM; with `O=C(NC1CN(c2ccccn2)C1)[C@H]1C[C@H](Oc2cccc3scnc23)C1` [Example 81, (trans)-3-(Benzo[d]thiazol-4-yloxy)-N-(1-(pyridin-2-yl)azetidin-3-yl)cyclobutanecarboxamide], 10 to 79.4 nM; with `O=C(NC1CCN(c2ccccn2)CC1)N1CC(Oc2cccc3scnc23)C1` [Example 88, 3-(Benzo[d]thiazol-4-yloxy)-N-(1-(pyridin-2-yl)piperidin-4-yl)azetidine-1-carboxamide], 10 to 79.4 nM. Same read-out and setting: then `O=C(NC1CCN(C(=O)OCc2ccccc2)CC1)N1CC(Oc2cccc3scnc23)C1` [Example 89, Benzyl 4-(3-(benzo[d]thiazol-4-yloxy)azetidine-1-carboxamido)piperidine-1-carboxylate], with 10 to 79.4 nM.

In the case of `O=C(NC1CCN(CC(F)(F)F)CC1)N1CC(Oc2cccc3scnc23)C1` [Example 91, 3-(Benzo[d]thiazol-4-yloxy)-N-(1-(2,2,2-trifluoroethyl)piperidin-4-yl)azetidine-1-carboxamide], the IC50 was 10 to 79.4 nM.

In the case of `CC(C)(O)[C@H]1CC[C@H](NC(=S)N2CC(Oc3cccc4scnc34)C2)CC1` [Example 95, 3-(Benzo[d]thiazol-4-yloxy)-N-((trans)-4-(2-hydroxypropan-2-yl)cyclohexyl) azetidine-1-carbothioamide], the IC50 is 10 to 79.4 nM. Take `CC(C)(C)OC(=O)N1CCC(NC(=O)N2CC(Oc3cccc4scnc34)C2)CC1` [Example 96, tert-butyl 4-(3-(benzo[d]thiazol-4-yloxy)azetidine-1-carboxamido)piperidine-1-carboxylate]: the IC50 is 100 to 1000 nM. For the compound `CS(=O)(=O)N1CCC(NC(=O)N2CC(Oc3cccc4scnc34)C2)CC1` [Example 97, 3-(Benzo[d]thiazol-4-yloxy)-N-(1-(methylsulfonyl)piperidin-4-yl)azetidine-1-carboxamide], the IC50 was 100 to 1000 nM.

In the case of `CS(=O)(=O)C1CCC(NC(=O)N2CC(Oc3cccc4scnc34)C2)CC1` (stereo not drawn) [Example 98, 3-(Benzo[d]thiazol-4-yloxy)-N-(4-(methylsulfonyl)cyclohexyl)azetidine-1-carboxamide], the “Potency Range (mean pIC50)” value is given as “** (pIC50 = 6.0-7.0)”. As for `O=C1NCC[C@@H]1NC(=O)N1CC(Oc2cccc3scnc23)C1` [Example 99, (S)-3-(Benzo[d]thiazol-4-yloxy)-N-(2-oxopyrrolidin-3-yl)azetidine-1-carboxamide], the IC50 was 100 to 1000 nM. As to `O=C(N[C@H]1CC[C@H](N2CCCS2(=O)=O)CC1)N1CC(Oc2cccc3scnc23)C1` [Example 101, 3-(Benzo[d]thiazol-4-yloxy)-N-((trans)-4-(1,1-dioxidoisothiazolidin-2-yl)cyclohexyl)azetidine-1-carboxamide], the IC50 was 10 to 79.4 nM. Still for that read-out and setting: then `CN1CCN([C@H]2CC[C@H](NC(=O)N3CC(Oc4cccc5scnc45)C3)CC2)C1=O` [Example 102, 3-(Benzo[d]thiazol-4-yloxy)-N-((trans)-4-(3-methyl-2-oxoimidazolidin-1-yl)cyclohexyl)azetidine-1-carboxamide], with 100 to 1000 nM; and `O=C(N[C@H]1CC[C@H](N2CCOC2=O)CC1)N1CC(Oc2cccc3scnc23)C1` [Example 103, 3-(Benzo[d]thiazol-4-yloxy)-N-((trans)-4-(2-oxooxazolidin-3-yl)cyclohexyl)azetidine-1-carboxamide], with 100 to 1000 nM.

Regarding `C[C@]1(O)CC[C@H](NC(=O)N2CC(Oc3cccc4scnc34)C2)CC1` [Example 105, 3-(Benzo[d]thiazol-4-yloxy)-N-((trans)-4-hydroxy-4-methylcyclohexyl)azetidine-1-carboxamide], the IC50 is 100 to 1000 nM. In the case of `CC(C)(O)CO[C@H]1CC[C@H](NC(=O)N2CC(Oc3cccc4scnc34)C2)CC1` [Example 106, 3-(Benzo[d]thiazol-4-yloxy)-N-((trans)-4-(2-hydroxy-2-methylpropoxy)cyclohexyl)azetidine-1-carboxamide], the IC50 was 10 to 79.4 nM. Turning to `O=C(NC1CN(c2ncccn2)C1)N1CC(Oc2cccc3scnc23)C1` [Example 107, 3-(Benzo[d]thiazol-4-yloxy)-N-(1-(pyrimidin-2-yl)azetidin-3-yl)azetidine-1-carboxamide], the IC50 was 10 to 79.4 nM.

Consider `CC(C)(O)[C@H]1CC[C@H](NC(=O)N2CC(Oc3cccc4scnc34)C2)CC1` [Example 108, 3-(Benzo[d]thiazol-4-yloxy)-N-((trans)-4-(2-hydroxypropan-2-yl)cyclohexyl)azetidine-1-carboxamide], for which the IC50 is 10 to 79.4 nM. Consider `CC(C)(O)[C@H]1CC[C@H](NC(=O)[C@H]2C[C@H](Oc3cccc4scnc34)C2)CC1` [Example 109, (trans)-3-(Benzo[d]thiazol-4-yloxy)-N-((trans)-4-(2-hydroxypropan-2-yl)cyclohexyl)cyclobutanecarboxamide], for which the IC50 was 10 to 79.4 nM. The same measure, in the same setting: with `NC(=O)c1ccc(N2CC(NC(=O)[C@H]3C[C@H](Oc4cc(F)cc5scnc45)C3)C2)nc1` [Example 110, 6-(3-((trans)-3-(6-Fluorobenzo[d]thiazol-4-yloxy)cyclobutanecarboxamido)azetidin-1-yl)nicotinamide] the figure was 10 to 79.4 nM; with `Cc1ccc(N2CC(NC(=O)[C@H]3C[C@H](Oc4cc(F)cc5scnc45)C3)C2)[n+]([O-])c1` [Example 111, 2-(3-((trans)-3-((6-Fluorobenzo[d]thiazol-4-yl)oxy)cyclobutanecarboxamido)azetidin-1-yl)-5-methylpyridine 1-oxide], 100 to 1000 nM; with `Cc1cnc(N2CC(NC(=O)[C@H]3C[C@H](Oc4cc(F)cc5scnc45)C3)C2)nc1` [Example 112, (trans)-3-((6-Fluorobenzo[d]thiazol-4-yl)oxy)-N-(1-(5-methylpyrimidin-2-yl)azetidin-3-yl)cyclobutanecarboxamide], 10 to 79.4 nM.

Turning to `O=C(NC1CN(c2ncc(CO)cn2)C1)N1CC(Oc2cc(F)cc3scnc23)C1` [Example 113, 3-((6-Fluorobenzo[d]thiazol-4-yl)oxy)-N-(1-(5-(hydroxymethyl)pyrimidin-2-yl)azetidin-3-yl)azetidine-1-carboxamide], the IC50 is 10 to 79.4 nM. In the case of `O=C(NC1CN(c2ncc(CO)cn2)C1)[C@H]1C[C@H](Oc2cc(F)cc3scnc23)C1` [Example 114, (trans)-3-((6-Fluorobenzo[d]thiazol-4-yl)oxy)-N-(1-(5-(hydroxymethyl)pyrimidin-2-yl)azetidin-3-yl)cyclobutanecarboxamide], the IC50 was 10 to 79.4 nM.
